Results reported in patent publication US9084904B2, “Composition for external application” (OTSUKA PHARMACEUTICAL CO., LTD., priority 2008, dated 2015).

Test system: JB6 CL 41-5A Cell Line, mouse epidermis
Assay: Influence of glucose on the intracellular ATP generation-promotion effect of AMP in cultured mouse epidermal cells (ATPlite luminescence)
Assay type: cell-based
Details: AMP 1 mM, 2 h
Source text: The following reports a test for examining the influence of glucose on the intracellular ATP generation-promotion effect given by AMP. Cultured mouse epidermal cells were used in the test.
Cells: JB6 CL 41-5A Cell Line, mouse epidermis
Culture medium: an MEM medium containing 5% FCS (Fetal Calf Serum)
MEM medium (Nacalai Tesque), Fetal calf serum (GIBCO) AMP: disodium adenosine monophosphate (Yamasa Corporation)
Glucose: D-glucose (Wako Pure Chemical Ind. Ltd.)
ATP measurement: “ATPlite” Luminescence Assay System (Perkin Elmer)
Microplate luminescence reader Anthos Lucy 1 (Aloka Co., Ltd.)
Cultured mouse epidermal cells were inoculated in a 96-well microplate in an amount of 5.8×10^3 cells per well. After two hours, the medium was replaced with another culture medium containing a test sample of a predetermined quantity. After another two hours, the medium was removed, and the amount of ATP was measured.
In the following experiment example, the content of glucose was 100 mg/dL, based on the fact that the normal fasting blood-sugar level of a living body is generally about 70 to 100 mg/dL.
Three concentrations (101, 110, 200 mg/dL) of glucose were added to a normal culture medium (containing 100 mg/dL of glucose) so as to examine how each concentration affects the ATP generation-promotion effect of AMP (1 mM). […] The addition of glucose with a concentration of 110 mg/dL increased ATP generation by 25%, based on the concentration of 100 mg/dL that corresponds to the normal fasting blood-sugar level.
Based on the result of Experiment Example 1, another experiment was performed as follows so as to confirm the influence of the glucose addition on the ATP generation-promotion effect of AMP by ensuring the increase of ATP generation by AMP (1 mM) when the glucose content is 101 mg/dL and 110 mg/dL, and ensuring the decrease of ATP generation by AMP (1 mM) when the glucose content is 200 mg/dL or higher.

[1] = Experiment Example 2, glucose 600 mg/dL

## Nc1ncnc2c1ncn2[C@@H]1O[C@H](COP(=O)([O-])[O-])[C@@H](O)[C@H]1O.[Na+].[Na+] [AMP, disodium adenosine monophosphate]
Experiment Example 1, glucose 110 mg/dL, based on 100 mg/dL glucose
  increase of ATP generation: 25%
Experiment Example 1, glucose 200 mg/dL
  ATP generation: lower than when the glucose content was 110 mg/dL and AMP was 1 mM
Experiment Example 1, glucose content increased from 101 to 110 mg/dL
  ATP generation: ATP generation increased
Experiment Example 2, glucose 101 mg/dL
  increase of ATP generation: ≥ 30%
Experiment Example 2, glucose 110 mg/dL
  increase of ATP generation: ≥ 30%
Experiment Example 2, glucose 200 mg/dL
  ATP generation: lower than when the glucose content was 100 mg/dL and AMP was 1 mM
[1]
  ATP generation compared with AMP-free medium containing 100 mg/dL glucose: not significantly lower
  ATP generation-promotion effect of AMP: small
